According to patent US20050282743A1, “Molecular interactions in cells” (Arbor Vita Corporation, priority 2001, published 2005):
Like-named read-outs stand apart in the source and are kept apart here.

Experiments:
Assay in all cases: Apparent affinity (Kd) by titration of PL peptide in the G assay
Assay type in all cases: binding
[1] = target: T1, PDZ-domain polypeptide (GST/PDZ fusion protein) (Homo sapiens, UniProt P78352)
T1 construct: made in house; host or cells: E. coli (DH5alpha, BL21 or JM109)
T1 sequence (P78352 whole entry, the tested form may be a part): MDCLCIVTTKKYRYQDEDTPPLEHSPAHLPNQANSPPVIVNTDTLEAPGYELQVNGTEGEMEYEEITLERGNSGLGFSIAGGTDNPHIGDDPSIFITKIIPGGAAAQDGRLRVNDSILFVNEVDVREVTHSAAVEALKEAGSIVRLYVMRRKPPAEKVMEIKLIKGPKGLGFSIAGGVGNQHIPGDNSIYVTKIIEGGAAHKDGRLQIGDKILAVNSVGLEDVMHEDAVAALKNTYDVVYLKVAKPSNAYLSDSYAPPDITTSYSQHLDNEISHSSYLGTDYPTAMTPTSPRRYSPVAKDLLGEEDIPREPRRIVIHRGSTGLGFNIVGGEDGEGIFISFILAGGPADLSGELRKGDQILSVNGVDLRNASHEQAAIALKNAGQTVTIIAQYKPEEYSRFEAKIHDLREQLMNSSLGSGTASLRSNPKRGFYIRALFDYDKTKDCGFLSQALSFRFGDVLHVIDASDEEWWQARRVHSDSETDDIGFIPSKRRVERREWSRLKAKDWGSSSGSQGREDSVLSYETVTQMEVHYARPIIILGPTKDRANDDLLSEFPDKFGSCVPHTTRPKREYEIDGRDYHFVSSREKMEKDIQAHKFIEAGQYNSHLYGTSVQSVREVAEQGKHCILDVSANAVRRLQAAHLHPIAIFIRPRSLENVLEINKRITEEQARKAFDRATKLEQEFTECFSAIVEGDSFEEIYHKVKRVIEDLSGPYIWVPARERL
Procedure, shortened: (§1)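 A fixed concentration of GST/PDZ fusion protein, 5 ug/ml by default, was mixed in solution with increasing labeled PL peptide (e.g. 0.1 uM-1 mM). Reaction times ranged from 10 minutes to 2 days at 4-37° C. Complexes were separated from free peptide and detected via the label as in the G assay, apparent affinity coming from the saturating concentration.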

[2] = target: T2, PDZ-domain polypeptide (GST/PDZ fusion protein) (Homo sapiens, UniProt Q12959); settings: read-out: Peptide Optimal Conc (Kd by titration of the PL peptide)
T2 construct: made in house; host or cells: E. coli (DH5alpha, BL21 or JM109)
T2 sequence (Q12959 whole entry, the tested form may be a part): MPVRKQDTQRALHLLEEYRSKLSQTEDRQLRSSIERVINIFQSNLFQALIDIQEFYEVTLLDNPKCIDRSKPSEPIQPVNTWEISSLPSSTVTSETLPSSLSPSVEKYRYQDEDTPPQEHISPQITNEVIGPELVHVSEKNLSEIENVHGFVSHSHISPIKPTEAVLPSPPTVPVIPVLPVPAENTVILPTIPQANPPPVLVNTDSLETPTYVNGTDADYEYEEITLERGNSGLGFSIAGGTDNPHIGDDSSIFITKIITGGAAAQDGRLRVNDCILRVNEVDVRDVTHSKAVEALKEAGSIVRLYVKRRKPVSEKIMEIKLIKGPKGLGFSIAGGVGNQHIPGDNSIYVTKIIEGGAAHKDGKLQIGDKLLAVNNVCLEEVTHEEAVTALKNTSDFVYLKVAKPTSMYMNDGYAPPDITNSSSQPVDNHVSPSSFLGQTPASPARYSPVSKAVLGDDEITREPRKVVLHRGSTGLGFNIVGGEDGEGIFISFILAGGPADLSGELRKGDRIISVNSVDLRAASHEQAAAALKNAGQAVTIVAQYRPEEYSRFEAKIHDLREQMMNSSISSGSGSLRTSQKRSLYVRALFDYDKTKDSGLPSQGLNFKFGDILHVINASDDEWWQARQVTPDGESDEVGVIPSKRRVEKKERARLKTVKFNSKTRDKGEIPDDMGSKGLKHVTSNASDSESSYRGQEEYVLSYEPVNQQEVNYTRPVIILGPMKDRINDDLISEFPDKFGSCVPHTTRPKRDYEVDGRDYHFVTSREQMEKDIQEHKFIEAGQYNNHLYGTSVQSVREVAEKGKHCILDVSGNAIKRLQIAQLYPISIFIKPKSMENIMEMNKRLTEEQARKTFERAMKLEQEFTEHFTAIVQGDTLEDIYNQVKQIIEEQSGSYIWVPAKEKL
Procedure, shortened: as §1

[3] = target: T3, PDZ-domain polypeptide (GST/PDZ fusion protein) (Homo sapiens, UniProt Q15700); settings: PDZ DLG2, PDZ Domain 2; Protein Optimal Conc 0.5
T3 construct: made in house; host or cells: E. coli (DH5alpha, BL21 or JM109)
T3 sequence (Q15700 whole entry, the tested form may be a part): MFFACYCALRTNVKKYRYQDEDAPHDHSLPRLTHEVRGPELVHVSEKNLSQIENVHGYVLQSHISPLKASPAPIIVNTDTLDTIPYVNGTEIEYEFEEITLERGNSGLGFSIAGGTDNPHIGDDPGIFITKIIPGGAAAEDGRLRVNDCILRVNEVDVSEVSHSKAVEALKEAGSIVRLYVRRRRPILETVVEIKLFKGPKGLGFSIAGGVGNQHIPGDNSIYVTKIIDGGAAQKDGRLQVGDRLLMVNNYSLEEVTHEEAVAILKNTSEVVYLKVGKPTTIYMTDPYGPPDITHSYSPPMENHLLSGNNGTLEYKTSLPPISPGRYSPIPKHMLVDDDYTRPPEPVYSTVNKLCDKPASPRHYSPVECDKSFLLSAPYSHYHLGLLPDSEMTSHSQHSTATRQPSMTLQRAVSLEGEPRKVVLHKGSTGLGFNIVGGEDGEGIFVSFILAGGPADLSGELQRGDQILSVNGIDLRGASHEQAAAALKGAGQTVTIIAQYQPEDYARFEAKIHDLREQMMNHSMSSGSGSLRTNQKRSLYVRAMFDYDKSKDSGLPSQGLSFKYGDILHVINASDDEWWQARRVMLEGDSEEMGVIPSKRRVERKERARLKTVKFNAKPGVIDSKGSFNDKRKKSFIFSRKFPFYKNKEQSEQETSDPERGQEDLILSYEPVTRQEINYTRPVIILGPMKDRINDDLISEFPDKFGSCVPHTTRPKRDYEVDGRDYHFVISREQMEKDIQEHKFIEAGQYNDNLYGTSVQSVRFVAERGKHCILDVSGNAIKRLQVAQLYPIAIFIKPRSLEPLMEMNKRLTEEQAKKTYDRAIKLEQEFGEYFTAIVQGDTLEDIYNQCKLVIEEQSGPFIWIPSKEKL
Procedure, shortened: as §1

| Structure (SMILES) | Kd ([1]; PDZ PSD95, PDZ Domain 1, Protein Optimal Conc 5, read-out: Peptide Optimal Conc (Kd by titration of the PL peptide)) | Kd ([2]; PDZ DLG1, PDZ Domain 1, Protein Optimal Conc 0.5) | Kd ([2]; PDZ DLG1, PDZ Domain 2, Protein Optimal Conc 0.3) | Kd [3] | Kd ([1]; PDZ PSD95, PDZ Domain 3, titration of the PL peptide, read-out: Peptide Optimal Conc (Kd, dissociation constant)) |
| --- | --- | --- | --- | --- | --- |
| CC[C@H](C)[C@H](NC(=O)[C@H](CCCCN)NC(=O)[C@@H](NC(=O)[C@H](CO)NC(=O)[C@@H]1CCCN1C(=O)[C@H](Cc1ccccc1)NC(=O)[C@@H](NC(=O)[C@@H](NC(=O)[C@H](CCCNC(=N)N)NC(=O)[C@H](CCC(=O)O)NC(=O)[C@H](CC(C)C)NC(=O)[C@H](CC(C)C)NC(=O)[C@H](CC(C)C)NC(=O)[C@@H](NC(=O)CNC(=O)[C@@H](NC(=O)CCCC[C@@H]1SC[C@@H]2NC(=O)N[C@@H]21)C(C)C)[C@@H](C)O)C(C)C)[C@@H](C)CC)C(C)C)C(=O)N[C@@H](C)C(=O)N[C@H](C(=O)N[C@@H](CC(C)C)C(=O)N[C@H](C(=O)O)C(C)C)[C@@H](C)O [Adenovirus E4 Type9] | 100 nM | 100 nM | 30 nM | 50 nM |  |
| CC[C@H](C)[C@H](NC(=O)[C@H](CO)NC(=O)[C@@H](NC(=O)[C@H](Cc1ccccc1)NC(=O)[C@H](CO)NC(=O)CCCC[C@@H]1SC[C@@H]2NC(=O)N[C@@H]21)[C@@H](C)O)C(=O)N[C@@H](CC(C)C)C(=O)N[C@H](C(=O)N[C@@H](CS)C(=O)N[C@@H](Cc1c[nH]cn1)C(=O)N[C@@H](CCC(N)=O)C(=O)N[C@@H](CCCNC(=N)N)C(=O)N[C@@H](CCCNC(=N)N)C(=O)N[C@H](C(=O)N[C@@H](CCC(N)=O)C(=O)N[C@@H](CCCNC(=N)N)C(=O)N[C@@H](CCCCN)C(=O)N[C@@H](CCC(=O)O)C(=O)N[C@H](C(=O)N[C@H](C(=O)N[C@@H](C)C(=O)O)C(C)C)[C@@H](C)O)[C@@H](C)O)[C@@H](C)O [GluR5-2 (rat)] |  |  |  |  | 100 nM |
